Measured values taken from ChEMBL document CHEMBL3813614 (ACS Med Chem Lett, 2016).

Tests used:
Format in all cases: ADME, organism-based
Brain [1] = assay: Unbound fraction in CD1 mouse brain at 25 mg/kg, po administered as single dose measured at 6 hrs post dose by LC-MS/MS analysis; settings: in vivo
Brain [2] = assay: Unbound fraction in CD1 mouse brain at 25 mg/kg, po administered as single dose measured at 1 hr post dose by LC-MS/MS analysis; settings: in vivo
[3] = AUC in CD1 mouse at 25 mg/kg, po; settings: in vivo
[4] = Ratio of unbound fraction in CD1 mouse brain to plasma at 50 mg/kg, po after 6 hrs by LC-MS/MS analysis; settings: read-out: K(p,uu,brain)
[5] = Ratio of unbound fraction in CD1 mouse brain to plasma at 25 mg/kg, po after 6 hrs by LC-MS/MS analysis; settings: read-out: K(p,uu,brain)

CC1(C)OCCn2c1nc1c(N3CCOCC3)nc(-c3cnc(N)nc3)nc12 [PAXALISIB]
Drug uptake(free) (Brain [1]): 0.16 µM
Drug uptake(free) (Brain [2]): 0.32 µM
AUC [3]: 47 µM·h

COC1(c2sc3c(N4CCOCC4)nc(-c4cnc(N)nc4)nc3c2C)COC1
Kp uu at 6 h [4]: 0.4

COC(C)(C)c1cc2nc(-c3cnc(N)nc3)nc(N3CCOCC3)c2s1
Kp uu at 6 h [5]: 0.4
